# Measurements: patent US8193326B2, “Nucleic acids encoding novel TERT polypeptides” (GemVax AS, priority 2000, dated 2012)
# Test system: T cells from human peripheral blood mononuclear cells (PBMC)
# Test: Induction and proliferation of human T cell response to peptide (3H-thymidine proliferation assay)
# Format: cell-based
# Settings: PBMC from four healthy donors primed with peptide-pulsed dendritic cells, re-stimulated with peptide-pulsed autologous PBMC, mean cpm of triplicates
# Description: In this experiment, peripheral blood mononuclear cells (PBMC) from four healthy humans (donors “14328”, “14313”, “23244” and “23255”) and were isolated and primed for seven days with dendritic cells pulsed with the SEQ ID NO: 11 peptide derived from the hTERT σ-insert polypeptide, followed by two cycles consisting of seven days re-stimulation with peptide-pulsed autologous PBMC. The dendritic cells were derived from monocytes from peripheral blood. T cells from the resulting bulk: culture were tested in triplicate with or without peptide-pulsed antigen presenting cells (APC) before harvesting after 3 days. To measure the proliferative capacity of the cultures, ^3H-thymidine (3.7×10^4 Bq/well) was added to the culture overnight before harvesting. Cultures with non-pulsed APC or without APC served as controls. Further details of the protocol used are set out below.
# T cell clones were obtained from the resulting bulk cultures from non-vaccinated donors 14313 and 23255. […]
# PBMCs were separated out from 50 ml of blood (from buffy coat). The cells were counted and re-suspended in complete RPMI-1640/15% pool serum. […]
# Bulk cultures were harvested and stimulated with irradiated PBMCs and peptide. If there was high cell death, cultures were lymphoprep separated, otherwise they were counted and resuspended in RPMI/15% pool serum. […]
substance,measurement,value
SEQ ID NO: 11: peptide derived from the hTERT σ-insert polypeptide (RVAVLWFNFLFKQKPSVSPRG; listed as Homo sapiens),"proliferative T cell response / peptide-specific T cells (bulk cultures and T cell clones, FIGS. 7-9)",T cells can be expanded in vitro following stimulation with the relevant peptide
